Data: patent US20250034171A1, “IMIDAZOPYRIDINE AMIDES AND RELATED COMPOUNDS FOR USE IN THE TREATMENT OF BACTERIAL INFECTIONS” (priority 2021, published 2025)
In brackets after ≈: the same amount, converted by molar mass. Like-named read-outs stand apart in the source and are kept apart here.

System: Mycobacterium tuberculosis strain H37Rv
Experiment: Test 2: MIC determination against M. tuberculosis, resazurin fluorescence
Format: cell-based
Conditions: Test 2, M. tuberculosis H37Rv; for MIC90: read-out: Bacterial activity MIC90; for IC50: read-out: Bacterial activity pMIC50 (converted)
[1] = Mycobacterium tuberculosis, H37RV

SMILES | MIC90 [1] [µM] | IC50 [1] [pM] | Bacterial activity pMIC50 | MIC90 [µM]
CCc1nc2n(c1C(=O)NCc1ccc(-c3nc4n(n3)CC[C@H](C(F)(F)F)C4)cc1)C[C@H](C)CC2 (single isomer, unassigned) [Compound 65] | 0.039 (≈ 0.019 µg/mL) | 13500 |  | 
CCc1nc2n(c1C(=O)NCc1ccc(-c3nc4n(n3)CC[C@@H](C(F)(F)F)C4)cc1)CC[C@H](C)C2 (single isomer, unassigned) [Compound 66] | 0.24 (≈ 0.117 µg/mL) | 51300 |  | 
CCc1nc2n(c1C(=O)NCc1ccc(-c3nc4n(n3)CC[C@H](C(F)(F)F)C4)cc1)CC[C@@H](C)C2 (single isomer, unassigned) [Compound 67] | 0.18 (≈ 0.0876 µg/mL) | 40700 |  | 
CCc1nc2n(c1C(=O)NCc1ccc(-c3nc4n(n3)CC[C@H](C(F)(F)F)C4)cc1)CC[C@H](C)C2 (single isomer, unassigned) [Compound 68] | 0.23 (≈ 0.112 µg/mL) | 47900 |  | 
CCc1nc2n(c1C(=O)NCc1ccc(-c3nc4n(n3)CC[C@H](C(F)(F)F)C4)cc1)C[C@@H](C)CC2 (single isomer, unassigned) [Compound 69] |  |  | 7.95 | 0.031 (≈ 0.0151 µg/mL)
CCc1nc2n(c1C(=O)NCc1ccc(-c3nc4n(n3)CC[C@@H](C(F)(F)F)C4)cc1)CC[C@@H](C)C2 (single isomer, unassigned) [Compound 70] | 0.23 (≈ 0.112 µg/mL) | 56200 |  | 
CCc1nc2n(c1C(=O)NCc1ccc(-c3nc4n(n3)CC[C@@H](C(F)(F)F)C4)cc1)C[C@H](C)CC2 (single isomer, unassigned) [Compound 71] | 0.024 (≈ 0.0117 µg/mL) | 9550 |  | 
CCc1nc2n(c1C(=O)NCc1ccc(-c3nc4n(n3)CC[C@@H](C(F)(F)F)C4)cc1)C[C@@H](C)CC2 (single isomer, unassigned) [Compound 72] | 0.042 (≈ 0.0204 µg/mL) | 13800 |  | 
CCc1nc2n(c1C(=O)NCc1ccc(-c3nc4n(n3)CC[C@H](C(F)(F)F)C4)cc1)C[C@@H](C)CC2 (single isomer, unassigned) [Compound 75] |  |  | 7.48 | 0.086 (≈ 0.0418 µg/mL)
CCc1nc2n(c1C(=O)NCc1ccc(-c3nc4n(n3)CC[C@@H](C(F)(F)F)C4)c(F)c1)CCCC2 (single isomer, unassigned) [Compound 76] |  |  | 7.55 | 0.09 (≈ 0.0441 µg/mL)
CCc1nc2ccccn2c1C(=O)NCc1ccc(-c2nc3n(n2)CC[C@@H](C(F)(F)F)C3)c(F)c1 (single isomer, unassigned) [Compound 78] |  |  | 8.08 | 0.028 (≈ 0.0136 µg/mL)
CCc1nc2ccccn2c1C(=O)NCc1ccc(-c2nc3n(n2)CC[C@H](C(F)(F)F)C3)c(F)c1 (single isomer, unassigned) [Compound 79] |  |  | 7.99 | 0.035 (≈ 0.017 µg/mL)
CCc1nn2c(c1C(=O)NCc1ccc(-c3nc4n(n3)CC[C@H](C(F)(F)F)C4)cc1)C[C@H](C)CC2 (single isomer, unassigned) [Compound 81] | 0.19 (≈ 0.0924 µg/mL) | 57500 |  | 
CCc1nn2c(c1C(=O)NCc1ccc(-c3nc4n(n3)CC[C@@H](C(F)(F)F)C4)cc1)C[C@@H](C)CC2 (single isomer, unassigned) [Compound 82] | 0.087 (≈ 0.0423 µg/mL) | 30900 |  | 
CCc1nn2c(c1C(=O)NCc1ccc(-c3nc4n(n3)CC[C@@H](C(F)(F)F)C4)cc1)C[C@H](C)CC2 (single isomer, unassigned) [Compound 83] | 0.23 (≈ 0.112 µg/mL) | 63100 |  | 
CCc1nc2ncc(C)cn2c1C(=O)NCc1ccc(-c2nc3n(n2)CCC(C)C3)cc1 (single isomer, unassigned) [Compound 94] |  |  | 7.86 | 0.039 (≈ 0.0168 µg/mL)
CCc1nc2ncc(C)cn2c1C(=O)NCc1ccc(-c2nc3n(n2)CC[C@@H](C(C)(F)F)C3)cc1 (single isomer, unassigned) [Compound 104] |  |  | 8.25 | 0.015 (≈ 0.00719 µg/mL)
CCc1nc2ncc(C)cn2c1C(=O)NCc1ccc(-c2nc3n(n2)CC[C@H](C(C)(F)F)C3)cc1 (single isomer, unassigned) [Compound 105] |  |  | 8.24 | 0.014 (≈ 0.00671 µg/mL)

SMILES | MIC90 [1] [µM] | IC50 [1] [pM] | Bacterial activity pMIC50 | MIC90 [µM]
CCc1nc2ncc(C)cn2c1C(=O)NCc1ccc(-c2cn3c(n2)CC(COC)CC3)cc1 (single isomer, unassigned) [Compound 118] |  |  | 7.48 | 0.083 (≈ 0.0381 µg/mL)
CCc1nc2n(c1C(=O)NCc1ccc(-c3nc4n(n3)CC[C@H](C(F)(F)F)C4)cc1)CC[C@@H](O)C2 (single isomer, unassigned) [Compound 131] | > 0.5 | > 501000 |  | 
CCc1nc2n(c1C(=O)NCc1ccc(-c3nc4n(n3)CC[C@H](C(F)(F)F)C4)cc1)CC[C@H](O)C2 (single isomer, unassigned) [Compound 132] | > 0.45 | > 269000 |  | 
CCc1nc2n(c1C(=O)NCc1ccc(-c3nc4n(n3)CC[C@H](C(F)(F)F)C4)cc1)CC[C@H](OC)C2 (single isomer, unassigned) [Compound 135] | > 0.44 | > 224000 |  | 
CCc1nc2n(c1C(=O)NCc1ccc(-c3nc4n(n3)CC[C@H](C(F)(F)F)C4)cc1)CC[C@@H](C(F)(F)F)C2 (single isomer, unassigned) [Compound 136] | > 0.5 | > 501000 |  | 
CCc1nc2n(c1C(=O)NCc1ccc(-c3nc4n(n3)CC[C@H](C(F)(F)F)C4)cc1)CC[C@H](C(F)(F)F)C2 (single isomer, unassigned) [Compound 137] | > 0.5 | > 501000 |  | 
CCc1nc2n(c1C(=O)NCc1ccc(-c3nc4n(n3)CC[C@H](C(F)(F)F)C4)cc1)CC[C@@H](OC)C2 (single isomer, unassigned) [Compound 139] | > 0.45 | > 182000 |  | 
CCc1nc2ncc(C(F)(F)F)cn2c1C(=O)NCc1ccc(-c2nc3n(n2)CC[C@H](C)C3)cc1 (single isomer, unassigned) [Compound 191] | > 0.5 | > 501000 |  | 
CCc1nc2ncc(C)cn2c1C(=O)NCc1ccc(-c2nc3n(n2)CCC(C(F)(F)F)C3)nn1 (stereo not shown) [Compound 41] | > 0.5 | > 501000 |  | 
CCc1nc2ncc(C)cn2c1C(=O)NCc1ccc(-c2nc3n(n2)CCC(C(F)(F)F)C3)nc1 (stereo not shown) [Compound 43] | 0.37 (≈ 0.179 µg/mL) | 155000 |  | 
CCc1nc2ncc(C)cn2c1C(=O)NCc1cc(C)c(-c2nc3n(n2)CCC(C(F)(F)F)C3)c(F)c1 (stereo not shown) [Compound 44] | 0.21 (≈ 0.108 µg/mL) | 45700 |  | 
CCc1nc2ncc(C)cn2c1C(=O)NCc1cnc(-c2nc3n(n2)CCC(C(F)(F)F)C3)c(F)c1 (stereo not shown) [Compound 45] | 1.05 (≈ 0.528 µg/mL) | 245000 |  | 
CCc1nc2ncc(C)cn2c1C(=O)NCc1cnc(-c2nc3n(n2)CCC(C(F)(F)F)C3)c(C)c1 (stereo not shown) [Compound 46] | > 0.5 | > 501000 |  | 
O=C(NCc1cnc(-c2nc3n(n2)CCC(C(F)(F)F)C3)c(F)c1)c1c(C(F)(F)F)nc2ccccn12 (stereo not shown) [Compound 47] | > 0.5 | > 501000 |  | 
CCc1nc2ncc(OC)cn2c1C(=O)NCc1ccc(-c2nc3n(n2)CC[C@@H](C(F)(F)F)C3)cc1 [Compound 48] | 0.026 (≈ 0.013 µg/mL) | 8320 |  | 
CCc1nc2ccc(F)cn2c1C(=O)NCc1ccc(-c2nc3n(n2)CC[C@@H](C(F)(F)F)C3)cc1 [Compound 52] | 0.16 (≈ 0.0778 µg/mL) | 41700 |  | 
O=C(NCc1ccc(-c2nc3n(n2)CC[C@@H](C(F)(F)F)C3)cc1)c1c(C(F)(F)F)nc2ncccn12 [Compound 53] | 0.036 (≈ 0.0183 µg/mL) | 11000 |  | 
